Source: patent publication US12624023B2, “Sulfonylurea derivatives and uses thereof” (NodThera Limited, priority 2019, dated 2026)

Assays:
[1] = tested on: IL-1β release upon NLRP3 activation in peripheral blood mononuclear cells (PBMC); assay: PBMC IC50 determination assay (IL-1β release, LPS priming + ATP stimulation, HTRF); assay type: cell-based; settings: PBMC from buffy coats; LPS 1 μg/ml 3 h, compound 30 min, ATP 5 mM 1 h; IL-1β by HTRF
Method: The compounds of the present disclosure were tested for their inhibitory activity against IL-1β release upon NLRP3 activation in peripheral blood mononuclear cells (PBMC).
PBMC were isolated from buffy coats by density gradient centrifugation on Histopaque-1077 (Sigma, cat no. 10771). Isolated cells were seeded into the wells (280,000 cells/well) of a 96-well plate and incubated for 3 h with lipopolysaccharide (LPS, 1 μg/ml diluted 1000× from a 1 mg/ml stock solution). The compounds of the present disclosure were added (a single compound per well) and the cells were incubated for 30 min. Next, the cells were stimulated with ATP (5 mM final concentration diluted 20× from a 100 mM stock solution) for 1 h and the cell culture media from the wells were collected for further analysis.
(§1) The release of IL-1β into the media was determined by quantitative detection of IL-1β in the media using HTRF®, CisBio cat. No. 62HIL1BPEH. Briefly, cell culture supernatant were dispensed directly into the assay plate containing antibodies labelled with the HTRF® donor and acceptor. A microplate spectrophotometer (BMG) was used to detect signals at 655 nm and 620 nm. The detection range of IL-1β HTRF® was 39-6500 μg/ml.

[2] = tested on: IL-1β release upon NLRP3 activation in human whole blood; assay: Whole blood (WB) assay (IL-1β release, LPS priming + ATP stimulation, HTRF); assay type: cell-based; settings: heparin, diluted 9:5 with media, LPS 1 μg/ml 3 h, compound 30 min, ATP 5 mM 1 h, IL-1β by HTRF
Method: The compounds of the present disclosure were tested for their inhibitory activity against IL-1β release upon NLRP3 activation in human whole blood.
Whole blood was drawn from single healthy donors and treated with sodium heparin anticoagulant. Blood was diluted with cell culture media at a 9:5 ratio, seeded in a 96-well plate and incubated for 3 h with lipopolysaccharide (LPS, 1 μg/ml final concentration diluted 1000× from a 1 mg/ml stock solution). The compounds of the present disclosure were added (a single compound concentration per well) and the blood was incubated for 30 min. Next, the blood was stimulated with ATP (5 mM final concentration diluted 20× from a 100 mM stock solution) for 1 h and the cell culture media from the wells were collected for further analysis.
as §1, with “were diluted as appropriate to bring IL-1β levels within the HTRF® detection range ([…]) and subsequently” for “were”, “dispensed” for “dispensed directly”, “nm.” for “nm. The detection range of IL-1β HTRF® was 39-6500 μg/ml.”

| Compound | IC50 [1] [nM] | IC50 [2] [nM] |
| --- | --- | --- |
| Cc1sc2c(c1NC(=O)NS(=O)(=O)N(c1cnn(C)c1)[C@H]1C[C@H](F)CN(C)C1)CCC2 [Compound 110, 1-{[(3S,5S)-5-Fluoro-1-methylpiperidin-3-yl](1-methyl-1H-pyrazol-4-yl)sulfamoyl}-3-{2-methyl-4H,5H,6H-cyclopenta[b]thiophen-3-yl}urea] | 100 to 500 | 1000 to 3000 |
| CC(C)c1cc(NC(=O)NS(=O)(=O)N(c2cnn(C)c2)C2CCCN(C)C2)c(C(F)(F)F)s1 (stereo not drawn) [Compound 121, 1-[(1-Methyl-1H-pyrazol-4-yl)(1-methylpiperidin-3-yl)sulfamoyl]-3-[5-(propan-2-yl)-2-(trifluoromethyl)thiophen-3-yl]urea] | 100 to 500 | 3000 to 10000 |
| Cc1csc(C)c1NC(=O)NS(=O)(=O)N(c1cnn(C)c1)C1CCCN(C)C1 (stereo not drawn) [Compound 9, 3-(2,4-Dimethylthiophen-3-yl)-1-[(1-methyl-1H-pyrazol-4-yl)(1-methyl-piperidin-3-yl)sulfamoyl]urea] | 1000 to 5000 | 3000 to 10000 |
| CC(C)c1cc(NC(=O)NS(=O)(=O)N(c2cnn(C)c2)[C@H]2C[C@H](F)CN(C)C2)c(C(C)C)s1 [Compound 92, 3-[2,5-Bis(propan-2-yl)thiophen-3-yl]-1-{[(3S,5S)-5-fluoro-1-methylpiperidin-3-yl](1-methyl-1H-pyrazol-4-yl)sulfamoyl}urea] | < 100 | < 1000 |
| Cc1cc(NC(=O)NS(=O)(=O)N(c2cnn(C)c2)C2CCCN(C)C2)c(C)s1 (stereo not drawn) [Compound 8, 3-(2,5-Dimethylthiophen-3-yl)-1-[(1-methyl-1H-pyrazol-4-yl)(1-methyl-piperidin-3-yl)sulfamoyl]urea] | 1000 to 5000 | 1000 to 3000 |
| CCc1sc(C(C)C)cc1NC(=O)NS(=O)(=O)N(c1cnn(C)c1)[C@@H]1CCCN(C)C1 [Compound 58, 3-[2-Ethyl-5-(propan-2-yl)thiophen-3-yl]-1-[(1-methyl-1H-pyrazol-4-yl)[(3R)-1-methylpiperidin-3-yl]sulfamoyl]urea] | < 100 | < 1000 |
| CC(C)c1cc(NC(=O)NS(=O)(=O)N(CCN(C)C)c2cnn(C(C)C)c2)c(C(C)C)o1 [Compound 83, 1-[2,5-Bis(propan-2-yl)furan-3-yl]-3-{[2-(dimethylamino)ethyl][1-(propan-2-yl)-1H-pyrazol-4-yl]sulfamoyl}urea] | 100 to 500 | 1000 to 3000 |
| Cc1cc(NC(=O)NS(=O)(=O)N(c2cnn(C)c2)C2CCOCC2)c(C)s1 [Compound 2, 3-(2,5-Dimethylthiophen-3-yl)-1-[(1-methyl-1H-pyrazol-4-yl)(oxan-4-yl)sulfamoyl]urea] | 500 to 1000 | 3000 to 10000 |
| CC(C)c1sc2c(c1NC(=O)NS(=O)(=O)N(c1cnn(C)c1)[C@@H]1CCCN(C)C1)CCC2 [Compound 70, 1-[(1-Methyl-1H-pyrazol-4-yl)[(3R)-1-methylpiperidin-3-yl]sulfamoyl]-3-[2-(propan-2-yl)-4H,5H,6H-cyclopenta[b]thiophen-3-yl]urea] | 100 to 500 | < 1000 |
| CC(C)c1cc(NC(=O)NS(=O)(=O)N(c2cnn(C)c2)C2CCCN(C)C2)c(C(C)C)o1 (stereo not drawn) [Compound 73, 3-[2,5-Bis(propan-2-yl)furan-3-yl]-1-[(1-methyl-1H-pyrazol-4-yl)(1-methylpiperidin-3-yl)sulfamoyl]urea] | < 100 | < 1000 |
| CC(C)c1cc(NC(=O)NS(=O)(=O)N(c2cnn(C(C)C)c2)[C@@H]2CCCN(C)C2)c(C(C)C)s1 [Compound 55, 3-[2,5-Bis(propan-2-yl)thiophen-3-yl]-1-{[(3R)-1-methylpiperidin-3-yl][1-(propan-2-yl)-1H-pyrazol-4-yl]sulfamoyl}urea] | < 100 | < 1000 |
| CC(C)c1sc2c(c1NC(=O)NS(=O)(=O)N(c1cnn(C)c1)[C@H]1CCCN(C)C1)CCC2 [Compound 85, 1-[(1-Methyl-1H-pyrazol-4-yl)[(3S)-1-methylpiperidin-3-yl]sulfamoyl]-3-[2-(propan-2-yl)-4H,5H,6H-cyclopenta[b]thiophen-3-yl]urea] | < 100 | < 1000 |
